# From patent US11072617B2, “Bicyclic sulfones and sulfoxides and methods of use thereof” (Genentech, Inc., priority 2017, dated 2021)
# Molecular target: human RIP1 kinase domain (2-375) (Homo sapiens (Human), UniProt Q13546)
# Assay: RIP1 kinase inhibition biochemical assay (Transcreener ADP, fluorescence polarization)
# Conditions: Ki app from tight-binding Morrison equation; 50 nM enzyme, 50 uM ATP, 2 hours incubation
# Procedure, shortened: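 Baculovirus-expressed human RIP1 kinase domain (2-375), 50 nM, incubated 2 h with compounds in pH 7.5 Hepes, 30 mM MgCl2, 50 uM ATP, 0.5% DMSO. ADP detected by Transcreener fluorescence-polarization tracer displacement; Ki^app from Morrison tight-binding fit.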
# Chain of human RIP1 kinase domain (2-375) (Q13546 2-375): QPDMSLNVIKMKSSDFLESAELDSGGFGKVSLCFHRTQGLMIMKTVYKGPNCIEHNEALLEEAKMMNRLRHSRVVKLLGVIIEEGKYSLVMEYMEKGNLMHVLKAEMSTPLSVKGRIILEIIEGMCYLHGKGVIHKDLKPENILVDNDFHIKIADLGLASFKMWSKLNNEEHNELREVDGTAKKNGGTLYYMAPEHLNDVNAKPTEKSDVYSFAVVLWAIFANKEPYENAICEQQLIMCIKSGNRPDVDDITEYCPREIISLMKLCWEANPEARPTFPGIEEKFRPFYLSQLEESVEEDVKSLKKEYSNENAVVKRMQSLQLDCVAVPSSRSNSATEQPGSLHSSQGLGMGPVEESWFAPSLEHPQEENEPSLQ
row,SMILES,Ki [µM]
1,"CC(C)(C)S(=O)(=O)c1nc2n(n1)[C@H](c1ccccc1)C[C@@H]2F (single isomer, unassigned) [Example 25]",0.032
2,"[O-][S+](CC(F)(F)F)c1nc2n(n1)[C@H](c1ccccc1)C[C@@H]2F (stereo partly drawn) [Example 113, (5S,7S)-7-fluoro-5-phenyl-2-(2,2,2-trifluoroethylsulfinyl)-6,7-dihydro-5H-pyrrolo[1,2-b][1,2,4]triazole]",0.028
3,"O=S(=O)(c1nc2n(n1)[C@H](c1cccc(F)c1)C[C@@H]2F)C(F)(F)F (single isomer, unassigned) [Example 135]",0.004
4,CS(=O)(=O)c1nc2n(n1)C(c1ccccc1)CC2 (racemic) [Example 9],1.04
5,"[O-][S+](CC(F)F)c1nc2n(n1)[C@H](c1ccccc1)C[C@@H]2F (stereo partly drawn) [Example 148, (5S,7S)-2-(2,2-difluoroethylsulfinyl)-7-fluoro-5-phenyl-6,7-dihydro-5H-pyrrolo[1,2-b][1,2,4]triazole]",0.007
6,"[O-][S+](CC(F)(F)F)c1nc2n(n1)C(c1ccccc1)CC2 (stereo not shown) [Example 177, 5-Phenyl-2-(2,2,2-trifluoroethylsulfinyl)-6,7-dihydro-5H-pyrrolo[1,2-b][1,2,4]triazole]",0.057
7,"O=S(=O)(c1nc2n(n1)[C@H](c1ccccc1F)C[C@@H]2F)C(F)(F)F (single isomer, unassigned) [Example 133]",0.004
8,"[O-][S@@+](CF)c1nc2n(n1)[C@H](c1c(F)cccc1F)C[C@@H]2F (single isomer, unassigned) [Example 80]",< 0.005
9,"O=S(=O)(c1nc2n(n1)[C@H](c1ccccc1)C[C@@H]2F)C1CC1 [Example 30, (5S,7S)-2-cyclopropylsulfonyl-7-fluoro-5-phenyl-6,7-dihydro-5H-pyrrolo[1,2-b][1,2,4]triazole]",0.004
10,"N#CCS(=O)(=O)c1cc2n(n1)[C@H](c1ccccc1)C[C@@H]2F (single isomer, unassigned) [Example 90]",0.008
11,"[O-][S@@+](CF)c1nc2n(n1)[C@H](c1cccc(F)c1F)C[C@@H]2F (single isomer, unassigned) [Example 76]",< 0.005
12,"O=S(=O)(c1nc2n(n1)[C@H](c1ccccc1)C[C@@H]2F)[C@H]1C[C@@H](CO)C1 (single isomer, unassigned) [Example 168]",0.53
13,"N#CCSc1nc2n(n1)[C@H](c1ccccc1)C[C@@H]2F (single isomer, unassigned) [Example 89]",0.01
14,"O=S(=O)(c1nc2n(n1)[C@H](c1cc(F)cc(Cl)c1)C[C@@H]2F)C(F)F (single isomer, unassigned) [Example 215]",0.032
15,"[O-][S+](c1nc2n(n1)[C@H](c1ccccc1)C[C@@H]2F)C1CC1 (stereo partly drawn) [Example 27, (5S,7S)-2-cyclopropylsulfinyl-7-fluoro-5-phenyl-6,7-dihydro-5H-pyrrolo[1,2-b][1,2,4]triazole]",0.033
16,"[O-][S@@+](c1nc2n(n1)[C@H](c1cccc(F)c1)C[C@@H]2F)C(F)F (single isomer, unassigned) [Example 179]",0.21
17,"[O-][S@@+](CF)c1nc2n(n1)[C@H](c1cccc(F)c1)C[C@@H]2F (single isomer, unassigned) [Example 82]",< 0.005
18,"O=S(=O)(c1nc2n(n1)[C@H](c1cc(F)cc(F)c1)C[C@@H]2F)C1CC1 (single isomer, unassigned) [Example 42]",< 0.005
19,"O=S(=O)(c1nc2n(n1)[C@H](c1cccc(F)c1F)C[C@@H]2F)[C@H]1C[C@H](F)C1 [Example 204, (5S,7S)-5-(2,3-difluorophenyl)-7-fluoro-2-trans-(3-fluorocyclobutyl)sulfonyl-6,7-dihydro-5H-pyrrolo[1,2-b][1,2,4]triazole]",0.016
20,"O=S(=O)(c1nc2n(n1)[C@@H](c1ccccc1Cl)CC2)C(F)F [Example 15, (5R)-5-(2-chlorophenyl)-2-(difluoromethylsulfonyl)-6,7-dihydro-5H-pyrrolo[1,2-b][1,2,4]triazole]",1.6
21,"O=S(=O)(c1nc2n(n1)[C@H](c1ccccc1)C[C@@H]2F)[C@H]1C[C@@H]1F (single isomer, unassigned) [Example 146]",0.004
22,"O=S(=O)(c1nc2n(n1)[C@@H](c1ccccc1)C[C@H]2F)C1CC1 (single isomer, unassigned) [Example 14]",0.98
23,"CC(F)S(=O)(=O)c1nc2n(n1)[C@H](c1ccccc1)C[C@@H]2F (stereo partly drawn) [Example 158, (5S,7S)-7-fluoro-2-(1-fluoroethylsulfonyl)-5-phenyl-6,7-dihydro-5H-pyrrolo[1,2-b][1,2,4]triazole]",0.013

row,SMILES,Ki [µM]
1,"O=S(=O)(c1nc2n(n1)[C@H](c1cc(F)cc(F)c1)C[C@@H]2F)[C@H]1C[C@H](F)C1 (single isomer, unassigned) [Example 193]",0.023
2,"[O-][S+](Cc1ccccc1)c1nc2n(n1)[C@H](c1ccccc1)C[C@@H]2F (stereo partly drawn) [Example 20, (5S,7S)-2-benzylsulfinyl-7-fluoro-5-phenyl-6,7-dihydro-5H-pyrrolo[1,2-b][1,2,4]triazole]",0.024
3,"O=S(=O)(c1nc2n(n1)[C@H](c1cc(F)ccc1F)C[C@@H]2F)[C@@H]1CC1(F)F (single isomer, unassigned) [Example 127]",0.006
4,"O=S(=O)(c1nc2n(n1)[C@H](c1cc(F)ccc1F)C[C@@H]2F)C1CC1F (stereo in doubt) [Example 201, (5S,7S)-5-(2,5-difluorophenyl)-7-fluoro-2-[(1S,2S)-2-fluorocyclopropyl]sulfonyl-6,7-dihydro-5H-pyrrolo[1,2-b][1,2,4]triazole]",0.025
5,"O=S(=O)(c1nc2n(n1)[C@H](c1ccccc1)C[C@@H]2F)C1(F)CC1 (single isomer, unassigned) [Example 178]",0.006
6,"CC(C)[S@+]([O-])c1nc2n(n1)[C@H](c1ccccc1)C[C@@H]2F (single isomer, unassigned) [Example 189]",0.76
7,"O=S(=O)(CF)c1nc2n(n1)[C@H](c1ccccc1)C[C@@H]2F (single isomer, unassigned) [Example 72]",0.023
8,"[O-][S+](CC1CC1)c1nc2n(n1)[C@H](c1ccccc1)C[C@@H]2F (stereo partly drawn) [Example 111, (5S,7S)-2-(cyclopropylmethylsulfinyl)-7-fluoro-5-phenyl-6,7-dihydro-5H-pyrrolo[1,2-b][1,2,4]triazole]",0.044
9,"CC(F)(F)S(=O)(=O)c1nc2n(n1)[C@H](c1ccccc1)C[C@@H]2F (single isomer, unassigned) [Example 149]",0.016
10,"O=S(=O)(c1nc2n(n1)[C@H](c1ccccc1)C[C@@H]2F)[C@H]1C[C@@H]1C(F)(F)F (mixture of isomers) [Example 163, (5S,7S)-7-fluoro-5-phenyl-2-[rac-(1S,2R)-2-(trifluoromethyl)cyclopropyl]sulfonyl-6,7-dihydro-5H-pyrrolo[1,2-b][1,2,4]triazole]",0.007
11,"[O-][S+](c1nc2n(n1)[C@H](c1cc(F)cc(F)c1)CC2)C(F)F (stereo in doubt) [Example 174, (5S)-2-[(R)-difluoromethylsulfinyl]-5-(3,5-difluorophenyl)-6,7-dihydro-5H-pyrrolo[1,2-b][1,2,4]triazole]",0.31
12,"O=S(=O)(c1ccccc1)c1nc2n(n1)[C@H](c1ccccc1)C[C@@H]2F (single isomer, unassigned) [Example 26]",3.2
13,"O=S(=O)(c1nc2n(n1)[C@H](c1cccc(F)c1F)C[C@@H]2F)C(F)F (single isomer, unassigned) [Example 68]",0.006
14,"O=S(=O)(c1nc2n(n1)[C@H](c1cc(F)cc(Cl)c1)C[C@@H]2F)C1CC1F (stereo in doubt) [Example 199, (5S,7S)-5-(3-chloro-5-fluoro-phenyl)-7-fluoro-2-[(1S,2S)-2-fluorocyclopropyl]sulfonyl-6,7-dihydro-5H-pyrrolo[1,2-b][1,2,4]triazole]",0.008
15,"[O-][S@+](CF)c1nc2n(n1)[C@H](c1ccccc1Cl)C[C@@H]2F (single isomer, unassigned) [Example 87]",0.1
16,"O=S(=O)(c1nc2n(n1)[C@H](c1cc(F)ccc1F)C[C@@H]2F)C(F)(F)F (single isomer, unassigned) [Example 138]",< 0.005
17,"O=S(=O)(c1nc2n(n1)[C@H](c1cccc(F)c1F)C[C@@H]2F)C(F)(F)F (single isomer, unassigned) [Example 136]",< 0.005
18,"N#CC1CC1S(=O)(=O)c1nc2n(n1)[C@H](c1ccccc1)C[C@@H]2F (stereo in doubt) [Example 221, (1S,2S)-2-[[(5S,7S)-7-fluoro-5-phenyl-6,7-dihydro-5H-pyrrolo[1,2-b][1,2,4]triazol-2-yl]sulfonyl]cyclopropanecarbonitrile]",0.018
19,"[O-][S@+](c1nc2n(n1)[C@H](c1ccccc1F)C[C@@H]2F)C(F)F (single isomer, unassigned) [Example 52]",0.003
20,"O=S(=O)(c1nc2n(n1)[C@H](c1cc(F)cc(F)c1)C[C@@H]2F)C(F)F (single isomer, unassigned) [Example 69]",< 0.005
21,"[O-][S@+](c1nc2n(n1)[C@H](c1ccccc1)C[C@@H]2F)C1CC1 [Example 29, (5S,7S)-2-[(S)-cyclopropylsulfinyl]-7-fluoro-5-phenyl-6,7-dihydro-5H-pyrrolo[1,2-b][1,2,4]triazole]",0.004
22,"C[C@H]1C[C@@H]1S(=O)(=O)c1nc2n(n1)[C@H](c1ccccc1)C[C@@H]2F (mixture of isomers) [Example 162, (5S,7S)-7-fluoro-5-phenyl-2-[rac-(1S,2S)-2-methylcyclopropyl]sulfonyl-6,7-dihydro-5H-pyrrolo[1,2-b][1,2,4]triazole]",0.014
23,"[O-][S@+](c1nc2n(n1)[C@H](c1ccccc1Cl)CC2)C(F)F [Example 18, (5S)-5-(2-chlorophenyl)-2-[(R)-difluoromethylsulfinyl]-6,7-dihydro-5H-pyrrolo[1,2-b][1,2,4]triazole]",0.008
